Changes are numbered by the printed parent chain.
Experiments:
Assay type in all cases: biochemical
[1] = Hydrogen peroxide assay (DCF fluorometric); settings: for hydrogen peroxide production: Cu(II) present, dark
Method: Hydrogen Peroxide Assay—The fluorometric assay for hydrogen peroxide is based on the dichlorofluorescein diacetate (DCF) method (Molecular Probes, Eugene, Oreg.). The DCF solution (5 mM) in 100% ethanol was deacetylated in the presence of 0.01 M NaOH for 30 minutes and neutralized. Horseradish peroxidase (200 U/ml) was then added and the DCF concentration adjusted to 200 μM in PBS. The reaction solutions were carried out in PBS, pH 7.4, in a 96-well format plate (total volume=300 μL/well) and contained a test compound (KYN, 3-HK, 3-HAA, ANA, or ASC, each at 10 μM), deacetylated DCF (20 μM), and Cu(II)-glycine (1 μM) as indicated, incubated at 37° C. for 60 minutes. […] Abolition of the reading by co-incubation with catalase (1000 U/ml) was used for establishing H2O2 specificity. The fluorescent readings were recorded by a Packard FLURORCOUNT™ fluorescent plate reader with a 485 nm excitation filter and 530 nm emission filter. Concentrations were determined by comparison to a standard curve using reagent grade hydrogen peroxide in CHELEX™ chelating ion exchanae resin-treated PBS buffer, pH 7.4.
Reactions were conducted in the absence of added Cu(II), in the presence of added glycine-complexed Cu(II) (1 μM), in the presence of added glycine-complexed Cu(II) (1 μM) and catalase (1000 U/ml), or with added glycine-complexed Cu(II) (1 μM) and the copper chelator triethylenetetramine (TETA, 200 μM).

[2] = molecular target: T1, recombinant human αB-crystallin (Homo sapiens, UniProt P02511); experiment: Recombinant human αB-crystallin cross-linking (SDS-PAGE, silver stain); settings: 5 days 37° C. dark
T1 construct: gift of Dr. J. Liang, Brigham and Women's Hospital
T1 sequence (P02511 1-175): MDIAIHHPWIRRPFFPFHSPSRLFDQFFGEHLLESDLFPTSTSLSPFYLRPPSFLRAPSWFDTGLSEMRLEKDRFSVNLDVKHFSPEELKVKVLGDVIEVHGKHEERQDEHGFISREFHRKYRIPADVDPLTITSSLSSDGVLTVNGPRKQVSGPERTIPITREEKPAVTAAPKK
Method: Various solutions containing 3-HK (10 μM) or other kynurenine pathway metabolites (10 μM), Cu(II)-glycine (10 μM), Fe(III)-citrate (10 μM), and triethylenetetramine (TETA, 200 μM), were added in combinations as indicated. […] After incubation, aliquots of the total lens protein solutions were mixed with sample buffer containing 4% SDS and 5% β-mercaptoethanol, heated to 95° C. for 5 minutes, and loaded at 1 μg/lane on a 10–20% Tricine gel (Novex, San Diego, Calif.). […] For the experiments with recombinant αB-crystallin, aliquots of the protein solutions were mixed with sample running buffer containing NuPAGE sample buffer (Novex, San Diego, Calif.) and 10% β-mercaptoethanol, heated to 95° C. for 5 minutes, spun briefly, then loaded on a NuPAGE 4–12% Bis-Tris polyacrylamide gel at 375 ng/lane and electrophoresed with denaturing 3-(N-morpholino)propanesulfonic acid (MOPS)-SDS running buffer according to the manufacturer's recommendations.
To exclude the effects of other lens proteins on the observed findings in FIG. 5, these interactions with purified recombinant human αB-crystallin were examined.

[3] = Hydrogen peroxide assay (DCF fluorometric); settings: reacting with Cu(II), 37° C., dark
α-crystallin = molecular target: T2, α-crystallin (Bos taurus, UniProt P02470+P02510); experiment: α-Crystallin modification under longwave ultraviolet illumination; settings: exposure of α-crystallin in the presence of longwave ultraviolet illumination
T2 sequence (P02470 1-173): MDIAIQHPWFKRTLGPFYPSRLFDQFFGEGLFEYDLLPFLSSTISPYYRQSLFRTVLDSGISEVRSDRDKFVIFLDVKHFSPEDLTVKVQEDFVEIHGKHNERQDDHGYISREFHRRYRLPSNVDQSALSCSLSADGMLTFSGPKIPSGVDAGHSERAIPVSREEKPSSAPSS
T2 sequence (P02510 1-175): T1 sequence (P02511 1-175) with T40A, F61I, T132A, V152A

In the case of Nc1c(O)cccc1C(=O)CC(N)C(=O)O (stereo not drawn) [3-HK, 3-hydroxykynurenine], the “hydrogen peroxide generated relative to available Cu(II)” value [1] is reported as “approximately 3 fold”, the hydrogen peroxide generated ([1]; ambient gas conditions, CHELEX-treated PBS, FIG. 4C) is reported as “approx. 3 μM” and the hydrogen peroxide production ([1]; ambient oxygen tension) is reported as 1.49 μM H2O2. The hydrogen peroxide production ([1]; high oxygen tension) was 1.84 μM H2O2, the hydrogen peroxide production ([1]; low oxygen tension (continuous argon sparging)) was 0.35 μM H2O2 and the αB-crystallin cross-linking ([2]; metabolite 10 μM alone) was “apparent dimeric and higher order oligomers were observed”. For the same molecule, the “αB-crystallin cross-linking with Cu(II)” value ([2]; metabolite 10 μM and Cu(II) 10 μM) was “monomeric and apparent dimeric αB-crystallin species were depleted and a prominent high molecular weight smear was observed”, the “time dependence of hydrogen peroxide generation” value [3] was “continuous over five hours” and the “capacity of altered α-crystallin to reduce metal and generate hydrogen peroxide” value (α-crystallin) was “dramatically enhanced capacity”.
